The values below come from PMC7352292, “Targeting Pharmacokinetic Drug Resistance in Acute Myeloid Leukemia Cells with CDK4/6 Inhibitors” (Cancers, 2020).

Where two headings read alike, the source gives them in different places.

Data set [1] deals with PBMC of AML patients. The experiment in a line: Mitoxantrone accumulation in PBMC of AML patients. In kind it is cell-based, human. To be noted: 1 µM mitoxantrone, 4 h; for increase of median mitoxantrone accumulation: cmax concentrations, vs untreated control; for effect on median mitoxantrone accumulation: CD34− PBMC, cmax concentrations (0.5 µM abemaciclib, 0.5 µM palbociclib, 7.5 µM ribociclib).

The target of a further data set is ABCB1 (Homo sapiens, UniProt P08183). The experiment in a line: Daunorubicin accumulation in HL-60 ABCB1 cells.
Sequence of ABCB1 (P08183 whole entry): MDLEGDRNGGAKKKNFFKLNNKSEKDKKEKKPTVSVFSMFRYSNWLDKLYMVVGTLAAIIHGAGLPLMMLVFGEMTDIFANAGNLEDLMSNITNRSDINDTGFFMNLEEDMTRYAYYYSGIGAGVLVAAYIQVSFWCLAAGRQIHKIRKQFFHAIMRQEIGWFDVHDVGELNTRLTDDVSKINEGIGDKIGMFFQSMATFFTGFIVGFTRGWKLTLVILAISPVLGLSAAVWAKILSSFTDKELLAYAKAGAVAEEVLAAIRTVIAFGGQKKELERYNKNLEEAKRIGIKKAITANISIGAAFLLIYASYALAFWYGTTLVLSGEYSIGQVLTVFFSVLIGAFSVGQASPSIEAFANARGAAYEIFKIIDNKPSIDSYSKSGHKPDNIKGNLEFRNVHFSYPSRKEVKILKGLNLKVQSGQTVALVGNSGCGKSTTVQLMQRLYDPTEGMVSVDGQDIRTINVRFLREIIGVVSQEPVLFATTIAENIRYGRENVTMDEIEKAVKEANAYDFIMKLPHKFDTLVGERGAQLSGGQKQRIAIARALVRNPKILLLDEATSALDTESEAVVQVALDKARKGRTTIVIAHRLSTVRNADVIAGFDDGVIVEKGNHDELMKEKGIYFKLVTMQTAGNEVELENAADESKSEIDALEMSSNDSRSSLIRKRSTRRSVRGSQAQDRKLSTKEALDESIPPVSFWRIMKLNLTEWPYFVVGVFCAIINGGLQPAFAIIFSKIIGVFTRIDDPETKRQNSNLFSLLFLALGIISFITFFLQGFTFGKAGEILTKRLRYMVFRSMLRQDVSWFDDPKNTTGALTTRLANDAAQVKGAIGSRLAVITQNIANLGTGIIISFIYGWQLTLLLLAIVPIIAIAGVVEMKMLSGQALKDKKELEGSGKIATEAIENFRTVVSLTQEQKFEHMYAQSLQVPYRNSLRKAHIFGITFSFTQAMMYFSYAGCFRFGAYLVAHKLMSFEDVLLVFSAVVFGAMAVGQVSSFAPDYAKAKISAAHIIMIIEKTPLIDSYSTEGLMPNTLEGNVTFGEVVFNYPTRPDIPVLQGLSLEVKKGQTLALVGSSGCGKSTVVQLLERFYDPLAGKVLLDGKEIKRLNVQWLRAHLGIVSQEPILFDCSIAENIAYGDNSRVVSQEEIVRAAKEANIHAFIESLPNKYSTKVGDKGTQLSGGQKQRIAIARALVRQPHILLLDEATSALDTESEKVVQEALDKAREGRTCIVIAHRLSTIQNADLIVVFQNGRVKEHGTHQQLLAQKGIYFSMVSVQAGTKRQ
The test system of data set [2] is PBMC of AML patients. As to the kind of experiment: Apoptosis detection (annexin V/PI) in PBMC of AML patients. In kind it is cell-based, human. To be noted: vs untreated control, 4 h, cmax concentrations. The procedure:
PBMC were isolated from whole blood using Ficoll-Paque PLUS gradient solution (GE Healthcare, Sweden) according to the manufacturer’s instructions. The mononuclear cells thus obtained were washed twice in 6 ml PBS and either transferred to RPMI with 10% FBS and immediately used for experiments or stored frozen in liquid nitrogen. […] The stated concentrations correspond with cmax plasma levels of the respective drugs. […] The cells were then washed in ice-cold PBS and resuspended in 195 µL of 2% FBS in PBS. The anti-human CD34/PE antibody 4H11 (Invitrogen, Carlsbad, CA, USA) was added and incubated on ice for 30 min. This was followed by washing and resuspending in 1 × ABB and staining by annexin V/FITC conjugate as described above. After subsequent staining with PI, the samples were analyzed using the SONY SA3800 spectral cell analyzer.

Data set [3] has as its target T1, ABCG2 (Homo sapiens, UniProt Q9UNQ0).
T1 sequence (Q9UNQ0 1-655): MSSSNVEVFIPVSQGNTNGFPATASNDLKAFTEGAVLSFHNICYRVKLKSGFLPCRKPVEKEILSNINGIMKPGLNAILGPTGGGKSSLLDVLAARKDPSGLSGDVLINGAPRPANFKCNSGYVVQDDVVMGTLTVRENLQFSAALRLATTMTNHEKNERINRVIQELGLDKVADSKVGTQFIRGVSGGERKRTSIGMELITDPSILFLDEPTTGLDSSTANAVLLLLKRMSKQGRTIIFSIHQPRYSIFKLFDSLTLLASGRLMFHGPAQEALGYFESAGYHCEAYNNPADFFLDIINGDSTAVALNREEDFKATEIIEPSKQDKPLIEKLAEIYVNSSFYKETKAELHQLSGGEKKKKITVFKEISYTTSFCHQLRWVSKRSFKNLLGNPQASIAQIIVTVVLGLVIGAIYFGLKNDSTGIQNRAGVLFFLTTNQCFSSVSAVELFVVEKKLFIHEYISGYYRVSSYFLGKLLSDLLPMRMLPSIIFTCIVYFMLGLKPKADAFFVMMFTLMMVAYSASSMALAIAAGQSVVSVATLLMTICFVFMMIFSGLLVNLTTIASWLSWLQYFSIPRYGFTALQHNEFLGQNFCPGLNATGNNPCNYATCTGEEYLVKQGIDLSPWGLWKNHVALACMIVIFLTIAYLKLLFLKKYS
To be noted: 1 h.
Description: (§3) LY335979 (1 µM) and Ko143 (1 µM) were used as ABCB1 and ABCG2 model inhibitors. After 15 min, daunorubicin (HL-60 and HL-60 ABCB1) or mitoxantrone (HL-60 and HL-60 ABCG2) was added for 1 h at a final concentration of 1 µM (37 °C, 5% CO2). Subsequently, the samples were centrifuged at 150 × g for 5 min, washed in 500 µL ice-cold phosphate buffered saline (PBS), then resuspended again in 500 µL ice-cold PBS and promptly analyzed with a BD FACSCanto II flow cytometer (BD Biosciences, San Jose, CA, USA) using excitation/emission wavelengths 488/670 nm for daunorubicin and 633/660 nm for mitoxantrone.
(§4) The data were statistically analyzed in GraphPad Prism 8.0.1 (GraphPad Software, Inc., San Diego, CA, USA). One-way ANOVA with Dunnett’s post hoc test or Student’s t-test was used for results obtained in vitro, and the nonparametric Mann–Whitney test was used to analyze ex vivo experiments. Half-maximal inhibitory concentrations (IC50) were calculated using sigmoidal Hill kinetics while showing also the corresponding 95% confidence intervals. The correlation between expression and function of ABCB1 and ABCG2 was determined by linear regression. All differences were considered significant at p < 0.05.

A further data set has as its system HL-60 cells. As to the kind of experiment: Sub-G1 fraction of HL-60 parental/control cells. In kind it is cell-based, human. To be noted: single drug vs untreated control. The method, then: (§1) The fluorescent substrates daunorubicin (0.2 µM) or mitoxantrone (1 µM) were then added and the suspensions incubated for 4 h at 37 °C and 5% CO2. […] The percentage of cells displaying hypodiploid DNA content is presented as a sub-G1 region of a PI histogram.

A further data set concerns HL-60 ABCB1 cells. As to the kind of experiment: Sub-G1 fraction of HL-60 ABCB1 cells. To be noted: 4 h. In kind it is cell-based, human. The procedure: as §1
The target of data set [4] is T1, ABCG2. The experiment in a line: Mitoxantrone accumulation in HL-60 ABCG2 cells.
Description: as §3, §4
Another data set has as its target T2, CBR1 (Homo sapiens, UniProt P16152).
T2 construct: made in house; host or cells: Escherichia coli
T2 sequence (P16152 1-277): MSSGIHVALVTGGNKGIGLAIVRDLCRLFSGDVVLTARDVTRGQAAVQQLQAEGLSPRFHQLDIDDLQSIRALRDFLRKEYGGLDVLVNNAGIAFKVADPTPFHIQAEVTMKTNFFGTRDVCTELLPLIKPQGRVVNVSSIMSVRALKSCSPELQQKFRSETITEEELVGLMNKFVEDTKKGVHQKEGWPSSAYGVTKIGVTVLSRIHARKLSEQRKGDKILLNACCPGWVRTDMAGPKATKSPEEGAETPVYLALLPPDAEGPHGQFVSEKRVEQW
The experiment in a line: Screening for inhibitory activity on recombinant CRE: CBR1. In kind it is biochemical. The conditions noted are these: 50 μM inhibitor concentration; mean ± SD, three experiments. An excerpt:
(§2) Human recombinant carbonyl reducing enzymes CBR1, AKR1A1, AKR1B1, AKR1B10, and AKR1C3 were expressed and isolated by the Escherichia coli expression system as described previously.

The target in data set [5] is T3, AKR1C3 (Homo sapiens, UniProt P42330).
T3 sequence (P42330 1-323): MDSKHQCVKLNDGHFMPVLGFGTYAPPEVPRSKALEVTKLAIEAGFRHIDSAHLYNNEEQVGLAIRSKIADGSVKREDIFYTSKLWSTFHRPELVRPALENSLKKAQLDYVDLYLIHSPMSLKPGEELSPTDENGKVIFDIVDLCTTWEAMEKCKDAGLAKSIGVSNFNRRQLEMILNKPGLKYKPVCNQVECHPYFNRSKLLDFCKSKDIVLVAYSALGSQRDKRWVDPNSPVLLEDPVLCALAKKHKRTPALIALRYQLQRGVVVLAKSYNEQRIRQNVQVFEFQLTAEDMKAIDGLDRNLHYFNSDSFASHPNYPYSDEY
The experiment in a line: Screening for inhibitory activity on recombinant CRE: AKR1C3. Format: biochemical. Further details: made in house; host or cells: Escherichia coli. To be noted: 50 μM inhibitor concentration; mean ± SD, three experiments.
Description: as §2

For a further data set, the target named is T4, AKR1B10 (Homo sapiens, UniProt O60218).
T4 construct: made in house; host or cells: Escherichia coli
T4 sequence (O60218 whole entry): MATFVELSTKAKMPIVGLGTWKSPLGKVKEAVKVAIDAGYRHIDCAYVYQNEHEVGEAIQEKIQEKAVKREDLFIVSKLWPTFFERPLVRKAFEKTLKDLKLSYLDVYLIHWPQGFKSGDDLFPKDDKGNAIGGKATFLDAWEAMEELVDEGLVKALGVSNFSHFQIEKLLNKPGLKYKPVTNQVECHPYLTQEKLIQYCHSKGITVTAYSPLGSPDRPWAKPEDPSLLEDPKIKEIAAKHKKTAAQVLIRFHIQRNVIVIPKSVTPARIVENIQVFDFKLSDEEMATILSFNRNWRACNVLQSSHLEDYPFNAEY
As to the kind of experiment: Screening for inhibitory activity on recombinant CRE: AKR1B10. Format: biochemical. The conditions noted are these: 50 μM inhibitor concentration; mean ± SD, three experiments.
Description: as §2

The target of data set [6] is T3, AKR1C3. As to the kind of experiment: Inhibitory assay on HCT116 cells with transient AKR1C3 expression (daunorubicin to daunorubicinol). Format: cell-based. To be noted: HCT116 transfected with AKR1C3, 1 µM daunorubicin, 0.1-10 μM drug, 4 h. The method, then: HCT116 cells were seeded (1.25 × 10^5 cells/well) in 24-well plates and after 24 h in culture transfected with mammalian pCI_AKR1C3 plasmid as described previously. The expression of recombinant AKR1C3 was verified by western blotting using rabbit polyclonal anti-AKR1C3 antibody (ab84327, Abcam, Cambridge, UK). Uniformity of transfection was assumed only when <10% difference was observed between experiments regarding the expression of pCI plasmid containing GFP reporter gene. […] After 4 h incubation (37 °C, 5% CO2), medium was collected, cells were lysed, and resulting samples were handled and analyzed by ultra high-performance liquid chromatography as described previously.

The conditions of data set [7]: cited from earlier work.
Another data set addresses T5, AKR1B1 (Homo sapiens, UniProt P15121).
T5 construct: made in house; host or cells: Escherichia coli
The experiment in a line: Screening for inhibitory activity on recombinant CRE: AKR1B1. In kind it is biochemical. To be noted: 50 μM inhibitor concentration; mean ± SD, three experiments.
Description: as §2

The next data set addresses T6, AKR1A1 (Homo sapiens, UniProt P14550).
T6 construct: made in house; host or cells: Escherichia coli
T6 sequence (P14550 1-325): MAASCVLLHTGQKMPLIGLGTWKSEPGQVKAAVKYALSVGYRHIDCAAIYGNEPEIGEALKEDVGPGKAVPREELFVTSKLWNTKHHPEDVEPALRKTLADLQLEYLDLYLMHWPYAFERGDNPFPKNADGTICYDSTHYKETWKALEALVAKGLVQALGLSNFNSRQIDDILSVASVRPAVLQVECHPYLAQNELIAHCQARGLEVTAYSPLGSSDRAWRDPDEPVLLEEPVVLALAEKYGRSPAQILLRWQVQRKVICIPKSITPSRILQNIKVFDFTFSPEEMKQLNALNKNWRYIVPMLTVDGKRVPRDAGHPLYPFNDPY
The experiment in a line: Screening for inhibitory activity on recombinant CRE: AKR1A1. The conditions noted are these: 50 μM inhibitor concentration; mean ± SD, three experiments. In kind it is biochemical.
Description: as §2

For data set [8], the system named is HL-60 ABCG2 cells. The experiment in a line: Sub-G1 fraction of HL-60 ABCG2 cells. The conditions noted are these: mitoxantrone alone 1 µM, 4 h.
Description: Estimation of fractional DNA content in the late stage of apoptosis was additionally used to clarify the results of annexin V/PI staining. […] The fluorescent substrates daunorubicin (0.2 µM) or mitoxantrone (1 µM) were then added and the suspensions incubated for 4 h at 37 °C and 5% CO2. Afterwards, the cells were resuspended in 2% FBS in PBS and fixed with ice-cold 70% ethanol for at least 30 min at −20 °C. After fixation, the cells were diluted and washed twice with 2% FBS in PBS. Then, 50 µL of RNAse A (100 µg/mL) was applied to ensure that only DNA would be present. Next, 200 µL of PI (50 µg/mL) was added to stain the DNA content of the cells. The samples were incubated for 1 h at 37 °C and 5% CO2. Analysis was performed using a SONY SA3800 spectral cell analyzer. The percentage of cells displaying hypodiploid DNA content is presented as a sub-G1 region of a PI histogram.
Data set [9] relates to HL-60 ABCG2 cells. As to the kind of experiment: Annexin V/PI staining of HL-60 ABCG2 cells. To be noted: mitoxantrone alone 1 µM, 4 h.
Description: The cell suspension was preincubated for 15 min, and then, 1 µM mitoxantrone was added. Mitoxantrone, a dual substrate of ABCB1 and ABCG2, was chosen as resistance victim drug for the experiment because there are no fluorescence spillovers with propidium iodide (PI), which limit the usage of daunorubicin in this setup. The cells were incubated for 4 h at 37 °C and 5% CO2, washed and subsequently resuspended in 1 × annexin binding buffer (ABB, 195 µL) followed by addition of 5 µL of annexin V/fluorescein isothiocyanate (FITC) conjugate. The suspension was incubated in darkness for 10 min. Cells were then washed once in 1 × ABB and resuspended in 400 µL of ABB. Prior to the measurement, 10 µL of PI solution was added and cells were analyzed by BD FACSCanto II flow cytometer using excitation/emission wavelengths 488/530 nm and 488/670 for FITC and PI, respectively.
Setting [10] is: CDKI (1, 10, 25 µM abemaciclib, palbociclib, ribociclib) + 0.2 µM daunorubicin.

`CCN1CCN(Cc2ccc(Nc3ncc(F)c(-c4cc(F)c5nc(C)n(C(C)C)c5c4)n3)nc2)CC1` [Abemaciclib, abemaciclib]: the “increase of median mitoxantrone accumulation” value (“increase” for short) in the data set on PBMC of AML patients [1] (CD34+ PBMC) is reported as 37.4%; in the data set with PBMC of AML patients [1] (FLT3-ITD− population) it was 16.4%. The “effect on median mitoxantrone accumulation” value in the data set with PBMC of AML patients [1] is recorded as “did not affect”. Moreover, the IC50 was 0.354 µM at ABCB1 and 2.98 µM at ABCG2 [4]. Further, in the data set on PBMC of AML patients [2], the “changes in PBMC apoptosis after single drug exposure” value (“changes in PBMC apoptosis” for short) is “no significant changes”. The “fold lower potency toward ABCG2 compared to ABCB1” value at ABCG2 [3] is listed as 8.4 fold. The “proapoptotic effect (sub-G1) as a single drug” value (“proapoptotic effect (sub-G1)” below) with HL-60 cells was “Neither abemaciclib, palbociclib, nor ribociclib caused a significant proapoptotic effect”. Also, the sub-G1 fraction with HL-60 ABCB1 cells (setting [10]) came to 47.5%. Besides, the inhibition at 50 µM was found to be 0% at CBR1; 26.3 ± 1.3% at AKR1C3 [5]; 2.08 ± 0.4% at AKR1B10; 0% on AKR1B1; 0% at AKR1A1. Moreover, the “changes in intracellular reduction of daunorubicin to daunorubicinol” value (from here on “changes in intracellular reduction”) at AKR1C3 [6] is “did not show any changes”. Also, the Cmax in data set [7] (human, in vivo) was 500 nM.

On to `CC(=O)c1c(C)c2cnc(Nc3ccc(N4CCNCC4)cn3)nc2n(C2CCCC2)c1=O` [Palbociclib, palbociclib], for which the “increase” value with PBMC of AML patients [1] (CD34+ PBMC) amounted to 33.4%; in the data set with PBMC of AML patients [1] (FLT3-ITD− population), 3.58%. Moreover, the “effect on median mitoxantrone accumulation” value with PBMC of AML patients [1] is given as “did not affect”. Also, the values for the IC50 against ABCB1 and at ABCG2 [4] were 6.65 µM and 45.5 µM, respectively. The “changes in PBMC apoptosis” value with PBMC of AML patients [2] was “no significant changes”. Also, on ABCG2 [3], the “ABCG2 IC50 fold higher than cmax” value was “approximately 100 fold”. In addition, the “fold lower potency toward ABCG2 compared to ABCB1” value at ABCG2 [3] was found to be 6.8 fold. The “proapoptotic effect (sub-G1)” value in the data set with HL-60 cells is on record as “Neither abemaciclib, palbociclib, nor ribociclib caused a significant proapoptotic effect”. Also, the sub-G1 fraction in the data set on HL-60 ABCB1 cells (setting [10]) stood at 30.7%. Besides, the inhibition at 50 µM at CBR1 is 0%; on AKR1C3 [5], 23.5 ± 6.67%; at AKR1B10, 0%; at AKR1B1 it was 5.54 ± 3.4%; on AKR1A1, 0%. Besides, the “changes in intracellular reduction” value at AKR1C3 [6] is recorded as “did not show any changes”. The Cmax in data set [7] (read-out: cmax plasma levels, standard dosing, concentration used in PBMC experiments) was 500 nM.

Consider `CN(C)C(=O)c1cc2cnc(Nc3ccc(N4CCNCC4)cn3)nc2n1C1CCCC1` [Ribociclib, ribociclib], for which the “increase” value in the data set on PBMC of AML patients [1] (CD34+ PBMC) was determined as 60.5%; with PBMC of AML patients [1] (FLT3-ITD− population) it was 28.6%. For the same compound, the “effect on median mitoxantrone accumulation” value in the data set with PBMC of AML patients [1] was “did not affect”. Further, the “changes in PBMC apoptosis” value in the data set on PBMC of AML patients [2] was “no significant changes”. Besides, in the data set with HL-60 cells, the “proapoptotic effect (sub-G1)” value is “Neither abemaciclib, palbociclib, nor ribociclib caused a significant proapoptotic effect”. The sub-G1 fraction in the data set with HL-60 ABCB1 cells (setting [10]) came to 35.6%. For the same compound, the concentration for half-maximal inhibition (IC50) on ABCG2 [4] stood at 26.9 µM. Moreover, the inhibition at 50 µM at CBR1 is 0%; at AKR1C3 [5] it was 36.2 ± 2.83%; on AKR1B10, 7.41 ± 1.08%; at AKR1B1 it was 4.58 ± 2.41%; on AKR1A1 it was 0%. In addition, the “changes in intracellular reduction” value on AKR1C3 [6] was “did not show any changes”. In addition, in data set [7] (human, in vivo), the maximum concentration (Cmax) was 7500 nM.

Turning to `COc1cccc2c1C(=O)c1c(O)c3c(c(O)c1C2=O)C[C@@](O)(C(C)=O)C[C@@H]3O[C@H]1C[C@H](N)[C@H](O)[C@H](C)O1` [daunorubicin], the sub-G1 fraction in the data set on HL-60 ABCB1 cells (daunorubicin alone 0.2 µM) worked out at 13.1%.

As to `O=C1c2c(O)ccc(O)c2C(=O)c2c(NCCNCCO)ccc(NCCNCCO)c21` [mitoxantrone], the sub-G1 fraction in the data set with HL-60 ABCG2 cells [8] is 46.2%. Besides, the “annexin V+ population” value with HL-60 ABCG2 cells [9] is on record as 25.2%.

In general, IC50 refers to the point on the concentration scale where inhibition reaches its midpoint. By inhibition is commonly meant the change of the read-out against control, counted positive when it falls. What is called Cmax is the highest concentration seen after dosing.
